This experiment concerns the target T1, human AhR (Homo sapiens, UniProt P35869).
T1 construct: INDIGO's Aryl Hydrocarbon Receptor (AhR) Reporter Cells include the luciferase reporter gene functionally linked to an AhR-responsive promoter
T1 sequence (P35869 11-848): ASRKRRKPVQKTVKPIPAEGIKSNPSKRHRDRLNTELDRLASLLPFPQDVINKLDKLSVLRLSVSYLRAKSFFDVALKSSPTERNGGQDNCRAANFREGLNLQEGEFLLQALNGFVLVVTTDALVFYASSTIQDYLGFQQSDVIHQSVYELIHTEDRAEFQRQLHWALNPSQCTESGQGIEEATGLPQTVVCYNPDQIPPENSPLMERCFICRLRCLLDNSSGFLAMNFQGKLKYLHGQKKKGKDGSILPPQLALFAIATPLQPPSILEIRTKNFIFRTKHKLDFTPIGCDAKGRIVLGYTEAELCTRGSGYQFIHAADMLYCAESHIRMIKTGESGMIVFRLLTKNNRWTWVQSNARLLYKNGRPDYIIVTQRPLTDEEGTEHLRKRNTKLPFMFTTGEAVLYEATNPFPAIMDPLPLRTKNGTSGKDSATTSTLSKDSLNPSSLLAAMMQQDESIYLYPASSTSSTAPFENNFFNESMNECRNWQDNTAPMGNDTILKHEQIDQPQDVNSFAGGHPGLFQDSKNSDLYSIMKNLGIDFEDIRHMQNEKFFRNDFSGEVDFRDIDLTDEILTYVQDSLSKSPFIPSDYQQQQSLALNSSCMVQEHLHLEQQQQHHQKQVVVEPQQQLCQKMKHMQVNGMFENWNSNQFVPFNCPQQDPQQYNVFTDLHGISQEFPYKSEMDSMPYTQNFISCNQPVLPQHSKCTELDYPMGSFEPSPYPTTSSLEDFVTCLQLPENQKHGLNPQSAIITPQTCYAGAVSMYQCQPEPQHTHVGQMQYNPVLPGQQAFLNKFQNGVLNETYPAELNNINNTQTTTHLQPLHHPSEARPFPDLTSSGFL
As to the kind of experiment: INDIGO AhR Reporter Assay (luciferase reporter cells, antagonist mode). The experiment is classed as cell-based. Particulars: antagonist mode with 50 nM of VAF347 (AhR agonist); 22-24 hours incubation; luciferase RLU. The source says:
INDIGO's Aryl Hydrocarbon Receptor (AhR) Reporter Cells include the luciferase reporter gene functionally linked to an AhR-responsive promoter. Thus, quantifying changes in luciferase expression in the treated reporter cells provides a sensitive surrogate measure of the changes in AhR activity. The principle application of this reporter assay is in the screening of test samples to quantify any functional activity, either agonist or antagonist, that they may exert against human AhR. Reporter Cells incorporate the cDNA encoding beetle luciferase, a 62 kD protein originating from the North American firefly (Photinus pyralis). Luciferase catalyzes the mono-oxidation of D-luciferin in a Mg^2+-dependent reaction that consumes 02 and ATP as co-substrates, and yields as products oxyluciferin, AMP, PPi, CO2, and photon emission. Luminescence intensity of the reaction is quantified using a luminometer, and is reported in terms of Relative Light Units (RLU's). In brief, 200 μl of Reporter Cells was dispensed into wells of the assay plate and pre-incubated for 4-6 hours. Following the pre-incubation period, culture media were discarded and 200 µl/well of the prepared 1×-concentration treatment media were added. Following 22-24 hours of incubation, treatment media were discarded and Luciferase Detection Reagent was added. The intensity of light emission (in units of “Relative Light Units” (RLU)) from each assay well was quantified using a plate-reading luminometer. The assay was run as a competitive binding assay in the antagonist mode with 50 nM of VAF347, a known AhR agonist.
In Table 4, IC50 values are reported as A, B, C, or D. A represents an IC50 value of less than 100 nM. B represents an IC50 value of equal or greater than 100 nM and less than 500 nM. C represents an IC50 value of equal or greater than 500 nM and less than 1 μM. D represents an IC50 value of equal or greater than 1 μM.
For orientation: Reporter assays use an easily measured gene product as a stand-in for the process of interest.

Bounds are passed on as bounds.

By IC50 is commonly meant the concentration at which inhibition is half-maximal. The low end stands for inhibition by little substance, the high end for a need for much substance. Take `Cc1ccccc1-c1cnc2cc(C(=O)Nc3cc(C(F)(F)F)nn3C)ccc2c1` [Compound 52, N-[1-methyl-3-(trifluoromethyl)-1H-pyrazol-5-yl]-3-(2-methylphenyl) quinoline-7-carboxamide]: the IC50 is 100 to 500 nM.

In turn, `Cc1ccccc1-c1cc(NC(=O)c2ccc3cc(-c4ccc(F)cc4)cnc3c2)n(C)n1` [Compound 95, 3-(4-fluorophenyl)-N-(1-methyl-3-(o-tolyl)-1H-pyrazol-5-yl)quinoline-7-carboxamide] displayed an IC50 below 100 nM.

With `CCN(CC)S(=O)(=O)c1cc(NC(=O)c2cc3cc(-c4ccncc4)cnc3s2)ccc1Cl` [Compound 142, N-[4-chloro-3-(N,N-diethylsulfamoyl)phenyl]-5-(pyridin-4-yl)-thieno[2,3-b]pyridine-2-carboxamide], the IC50 fell in the range of 100 to 500 nM.

As to `Cn1nc(C(F)(F)F)cc1NC(=O)c1ccc2cc(-c3ccc(F)cn3)cnc2c1` [Compound 101, 3-(5-fluoropyridin-2-yl)-N-(1-methyl-3-(trifluoromethyl)-1H-pyrazol-5-yl)quinoline-7-carboxamide], the IC50 was below 100 nM.

Compound `CCN(CC)S(=O)(=O)c1cc(NC(=O)c2cc3cc(-c4ccc(F)cn4)cnc3s2)ccc1Cl` [Compound 151, N-[4-chloro-3-(N,N-diethylsulfamoyl)phenyl]-5-(5-fluoropyridin-2-yl)-thieno[2,3-b]pyridine-2-carboxamide] came in with a half-maximal inhibitory concentration (IC50) above 1000 nM.

Take `Cn1nc(-c2ccccc2F)cc1NC(=O)c1cc2ncccc2cc1Cl` [Compound 29, 6-Chloro-N-[3-(2-fluorophenyl)-1-methyl-1H-pyrazol-5-yl]quinoline-7-carboxamide]: the concentration for half-maximal inhibition (IC50) is 100 to 500 nM.

Compound `Cn1nc(C(F)(F)F)cc1NC(=O)c1ccc2cc(-c3ccccc3)cnc2c1` [Compound 40, N-[1-Methyl-3-(trifluoromethyl)-1H-pyrazol-5-yl]-3-phenylquinoline-7-carboxamide] showed a 50% inhibitory concentration (IC50) below 100 nM.

As for `Cn1nc(C(F)(F)F)cc1NC(=O)c1ccc2cc(-c3ccccc3Cl)cnc2c1` [Compound 66, 3-(2-Chlorophenyl)-N-[1-methyl-3-(trifluoromethyl)-1H-pyrazol-5-yl]quinoline-7-carboxamide], the IC50 was 100 to 500 nM.

In turn, `Cc1ccccc1-c1cc(NC(=O)c2cc3ncccc3cc2Cl)n(C)n1` [Compound 31, 6-Chloro-N-[1-methyl-3-(2-methylphenyl)-1H-pyrazol-5-yl]quinoline-7-carboxamide] displayed a half-maximal inhibitory concentration (IC50) below 100 nM.

`Cc1ccccc1-c1cc(NC(=O)c2ccc3cc(-c4ccc(F)cc4F)cnc3c2)n(C)n1` [Compound 96, 3-(2,4-difluorophenyl)-N-(1-methyl-3-(o-tolyl)-1H-pyrazol-5-yl)quinoline-7-carboxamide] came in with an IC50 below 100 nM.

`Cn1nc(C(F)(F)F)cc1NC(=O)c1ccc2cc(-c3ncc(F)cn3)cnc2c1` [Compound 123, 3-(5-fluoropyrimidin-2-yl)-N-[1-methyl-3-(trifluoromethyl)-1H-pyrazol-5-yl]quinoline-7-carboxamide] registered an IC50 below 100 nM.

`Cn1nc(-c2ccccc2)cc1NC(=O)c1ccc2cc(-c3ccncc3F)cnc2c1` [Compound 125, 3-(3-fluoropyridin-4-yl)-N-(1-methyl-3-phenyl-1H-pyrazol-5-yl) quinoline-7-carboxamide]: the concentration for half-maximal inhibition (IC50) lay in the range of 100 to 500 nM.

As to `Cn1nc(C(F)(F)F)cc1NC(=O)c1ccc2cc(-c3ccc(F)cc3)cnc2c1` [Compound 61, 3-(4-Fluorophenyl)-N-[1-methyl-3-(trifluoromethyl)-1H-pyrazol-5-yl]quinoline-7-carboxamide], the IC50 is below 100 nM.

For the compound `Cn1nccc1NC(=O)c1ccc2c(Oc3ccccc3)ccnc2c1` [Compound 76, N-(1-Methyl-1H-pyrazol-5-yl)-4-phenoxyquinoline-7-carboxamide], the 50% inhibitory concentration (IC50) is above 1000 nM.

As to `Cn1nc(-c2ccccc2)cc1NC(=O)c1ccc2cc(-c3ccc(F)cn3)cnc2c1` [Compound 128, 3-(5-fluoropyridin-2-yl)-N-(1-methyl-3-phenyl-1H-pyrazol-5-yl) quinoline-7-carboxamide], the IC50 is below 100 nM.

In turn, `CN1CCN(S(=O)(=O)c2cc(NC(=O)c3ccc4c(c3)NC(=O)CO4)ccc2Cl)CC1` [Compound 172] showed an IC50 of 500 to 1000 nM.

`Cn1nc(C(F)(F)F)cc1NC(=O)c1ccc2cc(-c3cccc(C(F)(F)F)c3)cnc2c1` [Compound 55, N-[1-Methyl-3-(trifluoromethyl)-1H-pyrazol-5-yl]-3-[3-(trifluoromethyl)phenyl]quinoline-7-carboxamide] showed an IC50 above 1000 nM.

The compound `Cn1nc(C(F)(F)F)cc1NC(=O)c1cc2ncccc2cc1Cl` [Compound 27, 6-Chloro-N-[1-methyl-3-(trifluoromethyl)-1H-pyrazol-5-yl]quinoline-7-carboxamide] displayed an IC50 below 100 nM.

`CCN1CCN(c2ccc(NC(=O)c3ccc4cc(-c5ccccc5)cnc4c3)cc2F)CC1` [Compound 64, N-[4-(4-ethylpiperazin-1-yl)-3-fluorophenyl]-3-phenylquinoline-7-carboxamide] displayed a half-inhibitory concentration (IC50) above 1000 nM.

For `CC(C)Oc1ccnc2cc(C(=O)Nc3cc(C(F)(F)F)nn3C)ccc12` [Compound 99, 4-Isopropoxy-N-[1-methyl-3-(trifluoromethyl)-1H-pyrazol-5-yl]quinoline-7-carboxamide], the half-maximal inhibitory concentration (IC50) was above 1000 nM.

Consider `Cn1nc(C(F)(F)F)cc1NC(=O)c1ccc2cc(-c3cccs3)cnc2c1` [Compound 73, N-[1-Methyl-3-(trifluoromethyl)-1H-pyrazol-5-yl]-3-(thiophen-2-yl)quinoline-7-carboxamide], for which the 50% inhibitory concentration (IC50) is below 100 nM.

`Cn1nc(C(F)(F)F)cc1NC(=O)c1ccc2cc(-c3ccccc3C(F)(F)F)cnc2c1` [Compound 53, N-[1-methyl-3-(trifluoromethyl)-1H-pyrazol-5-yl]-3-[2-(trifluoromethyl)phenyl]quinoline-7-carboxamide] came in with an IC50 of 500 to 1000 nM.

For the compound `O=C(Nc1ccc(C(F)(F)F)nc1)c1ccc2cc(-c3nccs3)cnc2c1` [Compound 83, 3-(thiazol-2-yl)-N-(6-(trifluoromethyl)pyridin-3-yl)quinoline-7-carboxamide], the half-maximal inhibitory concentration (IC50) was in the range of 500 to 1000 nM.

Compound `Cc1cc(F)ccc1-c1cc(NC(=O)c2cc3ncccc3cc2Cl)n(C)n1` [Compound 57, 6-Chloro-N-(3-(4-fluoro-2-methylphenyl)-1-methyl-1H-pyrazol-5-yl) quinoline-7-carboxamide] had an IC50 of 100 to 500 nM.

For the compound `Cn1nc(C(F)(F)F)cc1NC(=O)c1ccc2cc(-c3cccc(Cl)c3)cnc2c1` [Compound 65, 3-(3-chlorophenyl)-N-[1-methyl-3-(trifluoromethyl)-1H-pyrazol-5-yl]quinoline-7-carboxamide], the IC50 was above 1000 nM.

As to `CCN(CC)S(=O)(=O)c1cc(NC(=O)c2cc3ncccc3cc2Cl)ccc1F` [Compound 33, 6-Chloro-N-(3-(N,N-diethylsulfamoyl)-4-fluorophenyl)quinoline-7-carboxamide], the half-inhibitory concentration (IC50) is 500 to 1000 nM.

Compound `Cn1nc(C(C)(C)C)cc1NC(=O)c1cc2ncccc2cc1Cl` [Compound 19, N-(3-tert-Butyl-1-methyl-1H-pyrazol-5-yl)-6-chloroquinoline-7-carboxamide] registered an IC50 of 100 to 500 nM.

With `CN(C)S(=O)(=O)c1cc(NC(=O)c2cc3cc(-c4ccc(F)cc4)cnc3s2)ccc1Cl` [Compound 148, N-[4-chloro-3-(N,N-dimethylsulfamoyl)phenyl]-5-(4-fluorophenyl)-thieno[2,3-b]pyridine-2-carboxamide], the IC50 lay in the range of 100 to 500 nM.

Values taken from patent US12312337B2, “Compounds and methods for treating cancer” (ANTIDOTE IP HOLDINGS, LLC, priority 2019, dated 2025).
